In US8940343B2, “Personal care composition” (Conopco Inc., priority 2010, dated 2015):

Tests used:
[1] = HPTLC photostability of Parsol 1789 spotted with potential quencher molecules (methanol stock solutions), UVR exposure, densitometry; type: physicochemical; conditions: Parsol 1789 remaining on HPTLC plate after UVR 5.5 mW/cm^2 for 120 minutes; ratios by weight
Protocol: The method was based on spotting the HPTLC plates (in duplicate) with the sunscreen molecules of interest along with potential quencher molecules or formulations. The plate is then exposed to UVR (intensity 5.5 mW/cm^2) for 120 minutes. Following this the chromatographic separation was carried out using appropriate solvent system. Densitometry analysis is done to determine the amount of sunscreen degraded.
Stock solutions were prepared in methanol following the ratios as mentioned in the following table. 14 μL of stock solutions were loaded (3 mm width; 16 mm separation) on a 10×10 cm F254 HPTLC plate, using CAMAG LINOMAT 5 applicator equipped with a 100 μL micro-syringe (Hamilton, Switzerland). Ascending chromatography was performed at a distance of 85 mm in a TLC chamber using n-hexane-ethyl acetate 9:1 (v/v) as the mobile phase (˜10 mL). The plates were dried at room temperature and subjected to ultraviolet absorption densitometry scan. The concentration dependent fluorescent bands due to presence of sunscreens were detected with a linear scan at 310 or 357 nm, using Camag TLC Scanner 3, in the presence of deuterium source. […] 4-t-buty-4′-methoxdibenzoylmethane concentrations present on each lane were determined from densitogram peak areas; prior and after the sun exposure using Win CATS Planar chromatography manager software.

[2] = known phenolic antioxidants compared with theaflavin

Row | Compound | Mean Percent stability [1] [%] | stabilizing property for sunscreens [2]
1 | COc1ccc(C(=O)CC(=O)c2ccc(C(C)(C)C)cc2)cc1 [Example 1a, 4-t-butyl-4′-methoxydibenzoylmethane] | 61.9 | –
2 | COC(=O)c1cc(O)c(O)c(O)c1 [methyl gallate] | – | did not provide the stabilizing property
